Reference: paper PMC3646541 (Nature protocols, 2011)

System: four of the six Bcl-2 family proteins
Assay: Multiplex flow cytometry competition dose-response against F-Bim
Type: binding
Conditions: constant 50 nM F-Bim, dose-response series (Fig. 2b)

In the case of `CN(C)CC[C@H](CSc1ccccc1)Nc1ccc(S(=O)(=O)NC(=O)c2ccc(N3CCN(Cc4ccccc4-c4ccc(Cl)cc4)CC3)cc2)cc1[N+](=O)[O-]` [ABT-737], the “ability to block F-Bim binding” value is reported as “block F-Bim binding to four of them at relatively low concentrations”.
